Assay results taken from patent publication US20130196964A1, “HETEROCYCLICALLY SUBSTITUTED ARYL COMPOUNDS AS HIF INHIBITORS” (BAYER SCHERING PHARMA AKTIENGESELLSCHAFT, priority 2008, published 2013).
Structures can show the parent of a compound that is named as a salt.

Tested on: HCT 116 cells transfected with a luciferase reporter under the control of an HIF-responsive sequence
Assay: HIF-luciferase assay
Format: cell-based
Details: Homo sapiens; HCT 116 HIF-luciferase reporter cells, hypoxia chamber (1% O2), 24 h, luminescence
Protocol: HCT 116 cells were transfected in a stable manner with a plasmid which contained a luciferase reporter under the control of an HIF-responsive sequence. These cells were sown in microtitre plates [20,000 cells/cavity in RPMI 1640 medium with 10% foetal calf serum (FCS) and 100 μg/ml of hygromycin]. Incubation was carried out overnight under standard conditions (5% CO2, 21% O2, 37° C., moistened). The following morning the cells were incubated with various concentrations of the test substances (0-10 μmol/l) in a hypoxia chamber (1% O2). After 24 h, Bright Glo reagent (Promega, Wis., USA) was added in accordance with the manufacturer'/s instructions, and after 5 min the luminescence was measured. Cells which were incubated under normoxia served as background controls.

IC50 [nM] | SMILES
4 | Cc1cc(-c2nc(-c3ccc(OC(F)(F)F)cc3)no2)nn1Cc1ccnc(N2CCC(N(C)C)CC2)c1 [Example 16, N,N-Dimethyl-1-{4-[(5-methyl-3-{3-[4-(trifluoromethoxy)phenyl]-1,2,4-oxadiazol-5-yl}-1H-pyrazol-1-yl)methyl]pyridin-2-yl}piperidin-4-amine]
5 | Cc1cc(-c2nc(-c3ccc(OC(F)(F)F)cc3)no2)nn1Cc1ccnc(N2CC(N(C)C)C2)c1 [Example 18]
10 | Cc1cc(-c2nc(-c3ccc(OC(F)(F)F)cc3)no2)nn1Cc1ccnc(N2CCN(C(C)C)CC2)c1 [Example 21]
10 | Cc1cc(-c2nc(-c3ccc(C4(F)CCOCC4)cc3)no2)nn1Cc1cccc(C(=O)N2CCN(C)CC2)c1 [Example 45]
3 | Cc1cc(-c2nc(-c3ccc(OC(F)(F)F)cc3)no2)cn1Cc1cccc(C(=O)N2CCN(C)CC2)c1 [Example 52]
1 | Cc1cc(-c2nc(-c3ccc(C4CCOCC4)cc3)no2)nn1Cc1ccnc(N2CCN(C3CC3)CC2)c1 [Example 71, 1-Cyclopropyl-4-{4-[(5-methyl-3-{3-[4-(tetrahydro-2H-pyran-4-yl)phenyl]-1,2,4-oxadiazol-5-yl}-1H-pyrazol-1-yl)methyl]pyridin-2-yl}piperazine]
1 | Cc1cc(-c2nc(-c3ccc(OC(F)(F)F)cc3)no2)nn1Cc1ccnc(N2CCN(CC(F)(F)F)CC2)c1 [Example 72, 1-{4-[(5-Methyl-3-{3-[4-(trifluoromethoxy)phenyl]-1,2,4-oxadiazol-5-yl}-1H-pyrazol-1-yl)-methyl]pyridin-2-yl}-4-(2,2,2-trifluoroethyl)piperazine]
4 | Cc1cc(-c2nc(-c3ccc(OC(F)(F)F)cc3)no2)nn1Cc1ccnc(N2CCN(C)C(=O)C2)c1 [Example 86, 1-Methyl-4-{4-[(5-methyl-3-{3-[4-(trifluoromethoxy)phenyl]-1,2,4-oxadiazol-5-yl}-1H-pyrazol-1-yl)methyl]pyridin-2-yl}piperazin-2-one]
0.6 | Cc1cc(-c2nc(-c3ccc(C4(C(F)(F)F)CC4)cc3)no2)nn1Cc1ccnc(N2CCN(C3CC3)CC2)c1 [Example 91, 1-Cyclopropyl-4-(4-{[5-methyl-3-(3-{4-[1-(trifluoromethyl)cyclopropyl]phenyl}-1,2,4-oxadiazol-5-yl)-1H-pyrazol-1-yl]methyl}pyridin-2-yl)piperazine]
20 | Cc1cc(-c2nc(-c3cccc(OC(F)(F)F)c3)no2)nn1Cc1cccc(C(=O)N2CCN(C)CC2)c1 [Example 119, (4-Methylpiperazin-1-yl) {3-[(5-methyl-3-{3-[3-(trifluoromethoxy)phenyl]-1,2,4-oxadiazol-5-yl}-1H-pyrazol-1-yl)methyl]phenyl}methanone hydrochloride]
4 | Cc1cc(-c2nc(-c3ccc(C(C)(C)C(F)(F)F)cc3)no2)nn1Cc1cccc(S(=O)(=O)N2CCC(O)CC2)c1 [Example 140, 1-({3-[(5-Methyl-3-{3-[4-(1,1,1-trifluoro-2-methylpropan-2-yl)phenyl]-1,2,4-oxadiazol-5-yl}-1H-pyrazol-1-yl)methyl]phenyl}sulfonyl)piperidin-4-ol]

Continued, molecule first:

SMILES | IC50 [nM]
Cc1cc(-c2nc(-c3ccc(OC(F)(F)F)cc3)no2)nn1Cc1cccc(C(=O)N2CCN(C3CC3)CC2)c1 [Example 35] | 2
Cc1cc(-c2nc(-c3ccc(S(=O)(=O)C(F)(F)F)cc3)no2)nn1Cc1cccc(C(=O)N2CCN(C)CC2)c1 [Example 41] | 6
Cc1cc(-c2nc(-c3ccc(OC(F)(F)F)cc3)no2)nn1Cc1ccnc(N2CCN(C3CC3)CC2)c1 [Example 65, 1-Cyclopropyl-4-{4-[(5-methyl-3-{3-[4-(trifluoromethoxy)phenyl]-1,2,4-oxadiazol-5-yl}-1H-pyrazol-1-yl)methyl]pyridin-2-yl}piperazine] | 0.6
Cc1cc(-c2nc(-c3ccc(C(C)(C)C)cc3)no2)nn1Cc1ccnc(N2CCN(C3CC3)CC2)c1 [Example 75, 1-[4-({3-[3-(4-tert-Butylphenyl)-1,2,4-oxadiazol-5-yl]-5-methyl-1H-pyrazol-1-yl}methyl)pyridin-2-yl]-4-cyclopropylpiperazine] | 1
COCC1(c2ccc(-c3noc(-c4cc(C)n(Cc5ccnc(N6CCN(C7CC7)CC6)c5)n4)n3)cc2)CCC1 [Example 77, 1-Cyclopropyl-4-(4-{[3-(3-{4-[1-(methoxymethyl)cyclobutyl]phenyl}-1,2,4-oxadiazol-5-yl)-5-methyl-1H-pyrazol-1-yl]methyl}pyridin-2-yl)piperazine] | 1
Cc1cc(-c2nc(-c3ccc(C(C)(C)C)cc3)no2)nn1Cc1ccnc(N2CCN(CC(F)(F)F)CC2)c1 [Example 78, 1-[4-({3-[3-(4-tert-Butylphenyl)-1,2,4-oxadiazol-5-yl]-5-methyl-1H-pyrazol-1-yl}methyl)pyridin-2-yl]-4-(2,2,2-trifluoroethyl)piperazine] | 0.5
Cc1cc(-c2nc(-c3ccc(OC(F)(F)F)cc3)no2)nn1Cc1ccnc(N2CCC(C#N)CC2)c1 [Example 85, 1-{4-[(5-Methyl-3-{3-[4-(trifluoromethoxy)phenyl]-1,2,4-oxadiazol-5-yl}-1H-pyrazol-1-yl)-methyl]pyridin-2-yl}piperidine-4-carbonitrile] | 2
Cc1cc(-c2nc(-c3ccc(OC(F)(F)F)c(F)c3)no2)nn1Cc1ccnc(N2CCN(C3CC3)CC2)c1 [Example 93, 1-Cyclopropyl-4-{4-[(3-{3-[3-fluoro-4-(trifluoromethoxy)phenyl]-1,2,4-oxadiazol-5-yl}-5-methyl-1H-pyrazol-1-yl)methyl]pyridin-2-yl}piperazine] | 0.8
Cc1cc(-c2nc(-c3ccc(OC(F)(F)F)cc3)no2)nn1Cc1cccc(C(=O)N2CCCO2)c1 [Example 100, {3-[(5-Methyl-3-{3-[4-(trifluoromethoxy)phenyl]-1,2,4-oxadiazol-5-yl}-1H-pyrazol-1-yl)methyl]-phenyl}(1,2-oxazolidin-2-yl)methanone] | 2.5
Cc1cc(-c2nc(-c3ccc(C4(C(F)(F)F)CC4)cc3)no2)nn1Cc1cccc(C(=O)N2CCN(C)CC2)c1 [Example 137, (4-Methylpiperazin-1-yl)(3-{[5-methyl-3-(3-{4-[1-(trifluoromethyl)cyclopropyl]phenyl}-1,2,4-oxadiazol-5-yl)-1H-pyrazol-1-yl]methyl}phenyl)methanone] | 3
COC1CCN(c2cc(Cn3nc(-c4nc(-c5ccc(OC(F)(F)F)cc5)no4)cc3C)ccn2)CC1 [Example 150, 2-(4-Methoxypiperidin-1-yl)-4-[(5-methyl-3-{3-[4-(trifluoromethoxy)phenyl]-1,2,4-oxadiazol-5-yl}-1H-pyrazol-1-yl)methyl]pyridine] | 3
